From US20260226048A1, “MULTI-CYCLIC IRAK AND FLT3 INHIBITING COMPOUNDS AND USES THEREOF” (CHILDREN'S HOSPITAL MEDICAL CENTER, priority 2023, published 2026)
Residue numbers refer to the chain shown, from its start.

Columns and labels:
FLT3 D835H = molecular target: T1, FLT3 D835H (Homo sapiens, UniProt P36888, D835H); assay: DiscoverX KINOMEscan competition binding assay, FLT3 D835H; conditions: 11-point 3-fold dilution
T1 construct: purchased DiscoverX (KINOMEscan); host or cells: E. coli BL21-derived host (T7 phage) or HEK-293
T1 sequence (P36888 27-993 D835H): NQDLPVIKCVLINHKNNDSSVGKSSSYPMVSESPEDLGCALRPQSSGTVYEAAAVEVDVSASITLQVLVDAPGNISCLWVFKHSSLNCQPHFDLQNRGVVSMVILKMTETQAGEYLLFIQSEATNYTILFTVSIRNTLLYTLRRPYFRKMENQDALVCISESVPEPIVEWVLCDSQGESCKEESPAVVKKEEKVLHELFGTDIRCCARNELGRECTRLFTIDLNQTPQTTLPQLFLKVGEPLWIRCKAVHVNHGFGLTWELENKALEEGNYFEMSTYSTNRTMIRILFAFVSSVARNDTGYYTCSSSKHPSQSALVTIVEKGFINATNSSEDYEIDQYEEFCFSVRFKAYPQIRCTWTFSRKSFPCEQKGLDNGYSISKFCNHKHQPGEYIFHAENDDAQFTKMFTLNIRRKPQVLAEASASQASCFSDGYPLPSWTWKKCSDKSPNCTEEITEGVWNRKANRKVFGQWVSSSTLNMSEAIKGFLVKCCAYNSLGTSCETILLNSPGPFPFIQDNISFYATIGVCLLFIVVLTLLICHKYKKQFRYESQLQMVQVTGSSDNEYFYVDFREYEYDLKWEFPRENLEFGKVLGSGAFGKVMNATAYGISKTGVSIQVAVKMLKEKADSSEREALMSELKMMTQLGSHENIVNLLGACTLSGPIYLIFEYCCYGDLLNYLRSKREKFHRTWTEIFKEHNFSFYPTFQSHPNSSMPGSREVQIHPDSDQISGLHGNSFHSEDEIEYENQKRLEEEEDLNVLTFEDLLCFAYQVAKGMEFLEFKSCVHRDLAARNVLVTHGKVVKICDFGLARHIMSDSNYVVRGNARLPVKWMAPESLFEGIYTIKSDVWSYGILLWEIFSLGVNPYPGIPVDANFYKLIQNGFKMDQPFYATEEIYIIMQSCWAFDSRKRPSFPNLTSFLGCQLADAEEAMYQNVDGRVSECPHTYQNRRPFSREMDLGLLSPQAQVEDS
Excerpt: (§1) […]. […] As a result, the data report thermodynamic interaction affinities (Kd values), rather than IC50 values that are dependent on ATP concentrations. The assay uses a DNA-tagged version of the protein kinase, and an immobilized ligand bound to a solid support. Compounds that directly or indirectly prevent kinase binding to the immobilized ligand reduce the amount of kinase captured on the solid support, which is detected using an ultra-sensitive qPCR method. Affinity constants reported from the assay have been reported to be independent of the immobilized ligand used that is coupled to the solid support (See supplemental information in Fabian, M. A. et. al., (2005) Nat. Biotechnol. 23, 329-336; Wodicka, L. M. et. al., (2010) Chem. Biol. 17, 1241-1249.)
(§2) Kinase-tagged T7 phage strains were prepared in an E. coli host derived from the BL21 strain. E. coli were grown to log-phase and infected with T7 phage and incubated with shaking at 32° C. until lysis. The lysates were centrifuged and filtered to remove cell debris. The remaining kinases were produced in HEK-293 cells and subsequently tagged with DNA for qPCR detection. Streptavidin-coated magnetic beads were treated with biotinylated small molecule ligands for 30 minutes at room temperature to generate affinity resins for kinase assays. The liganded beads were blocked with excess biotin and washed with blocking buffer (SeaBlock (Pierce), 1% BSA, 0.05% Tween 20, 1 mM DTT) to remove unbound ligand and to reduce non-specific binding. […] Test compounds were prepared as 111× stocks in 100% DMSO. Kds were determined using an 11-point 3-fold compound dilution series with three DMSO control points. All compounds for Kd measurements are distributed by acoustic transfer (non-contact dispensing) in 100% DMSO. The compounds were then diluted directly into the assays such that the final concentration of DMSO was 0.9%. All reactions were performed in polypropylene 384-well plates. Each was a final volume of 0.02 mL. […] The kinase concentration in the eluates was measured by qPCR.
(§3) Binding constants (Kds) were calculated with a standard dose-response curve using the Hill equation. The Hill Slope was set to −1. Curves were fitted using a non-linear least square fit with the Levenberg-Marquardt algorithm.

FLT3 D835V = molecular target: T2, FLT3 D835V (Homo sapiens, UniProt P36888, D835V); assay: DiscoverX KINOMEscan competition binding assay, FLT3 D835V; conditions: 11-point 3-fold dilution
T2 construct: purchased DiscoverX (KINOMEscan); host or cells: E. coli BL21-derived host (T7 phage) or HEK-293
T2 sequence (P36888 27-993 D835V): T1 sequence (P36888 27-993 D835H) with H809V
Excerpt: as §1, §2, §3

SMILES | Kd (FLT3 D835H) [pM] | Kd (FLT3 D835V) [pM]
COc1cc2ncc(-c3nc(N[C@H]4CNCC[C@@H]4F)ncc3F)n2nc1N1CCCS1(=O)=O [Compound 112a, 2-(3-(5-fluoro-2-(((3S,4S)-4-fluoropiperidin-3-yl)amino)pyrimidin-4-yl)-7-methoxyimidazo[1,2-b]pyridazin-6-yl)isothiazolidine 1,1-dioxide] | < 170 | < 170
COc1cc2ncc(-c3nc(N[C@H]4CNCC[C@@H]4F)ncc3F)n2nc1C(C)(C)O [Compound 45a, 2-(3-(5-fluoro-2-(((3S,4S)-4-fluoropiperidin-3-yl)amino)pyrimidin-4-yl)-7-methoxyimidazo[1,2-b]pyridazin-6-yl)propan-2-ol] | 420 | 870
COc1cc2ncc(-c3nc(N[C@H]4CNCC[C@@H]4F)ncc3F)n2nc1C1COC1 [Compound 92a, 5-fluoro-N-((3S,4S)-4-fluoropiperidin-3-yl)-4-(7-methoxy-6-(oxetan-3-yl)imidazo[1,2-b]pyridazin-3-yl)pyrimidin-2-amine] | < 170 | < 170
FC(F)COc1cc2ncc(-c3ccnc(N[C@H]4CNCC[C@@H]4F)n3)n2nc1C1CC1 [Compound 4a, 4-(6-cyclopropyl-7-(2,2-difluoroethoxy)imidazo[1,2-b]pyridazin-3-yl)-N-((3 S,4S)-4-fluoropiperidin-3-yl)pyrimidin-2-amine] | 700 | < 170
CC(C)(O)c1ccc2ncc(-c3nc(N[C@H]4CNCC[C@@H]4F)ncc3F)n2c1 [Compound 46a, 2-(3-(5-fluoro-2-(((3S,4S)-4-fluoropiperidin-3-yl)amino)pyrimidin-4-yl)imidazo[1,2-a]pyridin-6-yl)propan-2-ol] | 670 | 530
COc1cc2ncc(-c3nc(N[C@H]4CNCC[C@@H]4F)ncc3F)n2nc1C1CC1 [Compound 1a, 4-(6-cyclopropyl-7-methoxyimidazo[1,2-b]pyridazin-3-yl)-5-fluoro-N-((3S,4S)-4-fluoropiperidin-3-yl)pyrimidin-2-amine] | 220 | < 170
CC(C)(O)c1cn2c(-c3nc(N[C@H]4CNCC[C@@H]4F)ncc3F)cnc2cn1 [Compound 100a, 2-(3-(5-fluoro-2-(((3S,4S)-4-fluoropiperidin-3-yl)amino)pyrimidin-4-yl)imidazo[1,2-a]pyrazin-6-yl)propan-2-ol] | 6300 | 2100
